Counter-ions that a name gives are not always drawn. Like-named read-outs stand apart in the source and are kept apart here.
Tests used:
[1] = test system: NCI-H292 lung cancer cells; assay: FDA drug screening, complete media vs cholesterol-free media with simvastatin (TABLE 2); assay type: cell-based, human
[2] = test system: NCI-H292 lung cancer cells; assay: FDA drug screening, complete media vs cholesterol-free media without statin (TABLE 1); assay type: cell-based, human
[3] = NCI-H292 cells, cholesterol-free media with simvastatin 0.04 μM, […]
[4] = complete media minus cholesterol-free media + simvastatin, […]
[5] = Complete minus Cholesterol-free, […]
[6] = NCI-H292 cells in cholesterol-free media without statin
[7] = NCI-H292 cells in complete media
[8] = NCI-H292 cells, FDA drug library screen, cholesterol-free media without statin
[9] = NCI-H292 cells, FDA drug library screen, complete media
[10] = NCI-H292 cells, FDA drug library screen, cholesterol-free media with simvastatin 0.04 μM
[11] = complete media vs cholesterol-free media + simvastatin (0.04 μM), >0 enhanced anti-cancer activity, about 0 neutral, <0 antagonist
[12] = Complete minus Cholesterol-free, greater than 0 enhanced anti-cancer activity, about 0 neutral, below 0 antagonists
[13] = complete media minus cholesterol-free media + simvastatin, >0 enhanced anti-cancer activity, about 0 neutral, <0 antagonist
[14] = Complete minus Cholesterol-free, greater than 0 enhanced anti-cancer activity, about 0 neutral, below 0 antagonist
[15] = NCI-H292 cells, cholesterol-free media without statin, FDA drug library screen
[16] = NCI-H292 cells, complete media, FDA drug library screen
[17] = NCI-H292 cells, drug in cholesterol-free media with simvastatin 0.04 μM
[18] = NCI-H292 cells, drug in complete media

For Cetrorelix (Acetate), which “Cholesterol-free media + simvastatin (0.04 μM)” value [1, 3] is on record?
Its value is 1.03.

And the Difference [1, 4]?
The Difference was 0.08.

And the Difference [2, 5]?
Its Difference is −1.14.

What about the Cholesterol-free [2, 6] of the same compound?
The Cholesterol-free was 1.889.

And the Complete [2, 7]?
Its Complete is 0.7459.

For `COC(=O)N[C@H](C(=O)N1CCC[C@H]1C(=O)Nc1ccc([C@@H]2CC[C@@H](c3ccc(NC(=O)[C@@H]4CCCN4C(=O)[C@@H](NC(=O)OC)C(C)C)cc3)N2c2ccc(C(C)(C)C)cc2)cc1)C(C)C` [Ombitasvir], which “Cholesterol-free media + simvastatin (0.04 μM)” value ([1]; NCI-H292 cells, cholesterol-free media with simvastatin 0.04 μM, FDA drug library screen (TABLE 2)) is on record?
The value was 0.6017.

What about the “Complete Media” value ([1]; NCI-H292 cells, complete media, FDA drug library screen (TABLE 2)) of the same compound?
The value was 0.5358.

What about the Difference ([1]; complete media minus cholesterol-free media + simvastatin (0.04 μM), […]) of the same compound?
The Difference was −0.07.

What about the Difference [2, 5] of the same compound?
Its Difference is −0.17.

And the Cholesterol-free [2, 8]?
The Cholesterol-free was 1.001.

And the Complete [2, 9]?
Its Complete is 0.8331.

For `CCOc1nc2cccc(C(=O)OCc3oc(=O)oc3C)c2n1Cc1ccc(-c2ccccc2-c2noc(=O)[nH]2)cc1` [Azilsartan medoxomil], which “Cholesterol-free media + simvastatin (0.04 μM)” value [1, 10] is on record?
Its value is 1.394.

And the “Complete Media” value [1, 9]?
Its value is 1.269.

What about the Difference [1, 11] of the same compound?
Its Difference is −0.12.

What about the Difference [2, 12] of the same compound?
The Difference was −0.49.

And the Cholesterol-free [2, 6]?
The Cholesterol-free was 1.119.

And the Complete [2, 7]?
The Complete was 0.6328.

With `O=C(Nc1cccc2c(=O)cc(-c3nnn[nH]3)oc12)c1ccc(OCCCCc2ccccc2)cc1` [Pranlukast] as the compound, how does the “Cholesterol-free media + simvastatin (0.04 μM)” value [1, 10] read?
The value was 0.7995.

What about the “Complete Media” value [1, 9] of the same compound?
The value was 1.23.

What about the Difference [1, 13] of the same compound?
Its Difference is 0.43.

What about the Difference [2, 14] of the same compound?
Its Difference is −0.10.

And the Cholesterol-free [2, 8]?
Its Cholesterol-free is 0.9973.

And the Complete [2, 9]?
Its Complete is 0.8953.

Which “Cholesterol-free media + simvastatin (0.04 μM)” value [1, 10] does the source give for `CCCC(=O)OC[C@@H](OC(=O)CCC)[C@@H](OC(=O)CCC)[C@H](Cn1c2nc(=O)[nH]c(=O)c-2nc2cc(C)c(C)cc21)OC(=O)CCC` [Riboflavin Tetrabutyrate] here?
Its value is 1.163.

And the “Complete Media” value [1, 9]?
The value was 1.747.

What about the Difference [1, 4] of the same compound?
Its Difference is 0.58.

And the Difference [2, 5]?
Its Difference is 0.07.

And the Cholesterol-free [2, 15]?
Its Cholesterol-free is 0.7766.

What about the Complete [2, 16] of the same compound?
The Complete was 0.8432.

Which “Cholesterol-free media + simvastatin (0.04 μM)” value ([1]; NCI-H292 cells, cholesterol-free media with simvastatin 0.04 μM, cell growth value in FDA drug screen) does the source give for `CC(C)(O)c1ccccc1CC[C@@H](SCC1(CC(=O)O)CC1)c1cccc(/C=C/c2ccc3ccc(Cl)cc3n2)c1` [Montelukast (sodium)] here?
Its value is 0.8464.

And the “Complete Media” value ([1]; NCI-H292 cells, complete media, cell growth value in FDA drug screen)?
Its value is 0.9746.

What about the Difference [1, 13] of the same compound?
The Difference was 0.13.

What about the Difference [2, 12] of the same compound?
The Difference was −0.51.

And the Cholesterol-free [2, 6]?
The Cholesterol-free was 1.599.

And the Complete [2, 7]?
Its Complete is 1.09.

What does the source list for `CC(=O)Nc1cccc(-n2c(=O)n(C3CC3)c(=O)c3c(Nc4ccc(I)cc4F)n(C)c(=O)c(C)c32)c1` [Trametinib (DMSO solvate)]?
Cholesterol-free media + simvastatin (0.04 μM) [1, 10]: 0.4848; Complete Media [1, 9]: 0.3787; Difference [1, 11]: −0.11; Difference ([2]; Complete minus Cholesterol-free, >0 enhanced anti-cancer activity, about 0 neutral, <0 antagonist): 0.00; Cholesterol-free [2, 15]: 0.2835; Complete [2, 16]: 0.2824

Which “Cholesterol-free media + simvastatin (0.04 μM)” value [1, 17] does the source give for `NCCc1c[nH]c2ccc(O)cc12` [Serotonin hydrochloride] here?
The value was 1.379.

And the “Complete Media” value [1, 18]?
The value was 1.18.

And the Difference [1, 11]?
Its Difference is −0.20.

What about the Difference [2, 12] of the same compound?
The Difference was −0.64.

And the Cholesterol-free [2, 6]?
The Cholesterol-free was 1.639.

And the Complete [2, 7]?
The Complete was 1.003.

Which results are given for `Cc1cc(NS(=O)(=O)c2ccc(N)cc2)no1` [Sulfamethoxazole]?
Cholesterol-free media + simvastatin (0.04 μM) [1, 17]: 1.223; Complete Media [1, 18]: 1.051; Difference [1, 11]: −0.17; Cholesterol-free ([2]; NCI-H292 cells, cholesterol-free media without statin): 1.301; Complete ([2]; NCI-H292 cells, complete media): 0.8647; Difference ([2]; complete vs cholesterol-free media, greater than 0 enhanced anti-cancer activity, about 0 neutral, below 0 antagonists): −0.44

Which results are given for Fludarabine (phosphate)?
Cholesterol-free media + simvastatin (0.04 μM) [1, 3]: 1.095; Complete Media ([1]; NCI-H292 cells, complete media, […]): 1.138; Difference [1, 4]: 0.04; Difference [2, 5]: −0.10; Complete [2, 9]: 0.9769

Which “Cholesterol-free media + simvastatin (0.04 μM)” value [1] does the source give for Primaquine (Diphosphate) here?
The value was 1.421.

And the “Complete Media” value [1]?
Its value is 1.652.

And the Difference [1]?
The Difference was 0.23.

And the Cholesterol-free [2]?
The Cholesterol-free was 1.192.

And the Complete [2]?
Its Complete is 0.8514.

And the Difference [2]?
Its Difference is −0.34.

Which “Cholesterol-free media + simvastatin (0.04 μM)” value [1, 10] does the source give for `N#Cc1cc(NC(=O)C(=O)O)c(Cl)c(NC(=O)C(=O)O)c1.NC(CO)(CO)CO.NC(CO)(CO)CO` [Lodoxamide (tromethamine)] here?
The value was 0.9835.

And the “Complete Media” value [1, 9]?
The value was 1.282.

What about the Difference [1, 13] of the same compound?
The Difference was 0.30.

And the Difference [2, 14]?
Its Difference is −0.13.

What about the Cholesterol-free [2, 8] of the same compound?
The Cholesterol-free was 0.8848.

What about the Complete [2, 9] of the same compound?
The Complete was 0.7586.

— patent US20250144067A1, “PERSONALIZED STARVATION THERAPY FOR CANCER” (Faeth Therapeutics, Inc., priority 2021, published 2025)
